From patent US20160296438A1, “PROTECTIVE ACTION OF LUTEIN AGAINST BLUE LIGHT ON HUMAN SKIN CELL LINES” (Kemin Industries, Inc., priority 2015, published 2016)
Entries after “also recorded” stand apart in the source; their conditions may differ.

Assays:
[1] = test system: human dermal fibroblasts (HDF) cells; assay: Blue light shielding study with lutein, cell viability/proliferation by MTS assay; assay type: cell-based; settings: lutein solution in DMSO at 50, 100 and 200 ppm as shield plate on top, blue LED 476 nm, 9 hours, p<0.05, FIG. 3
Procedure: (§1) Cell culture studies. All the cell culture studies were performed using HEK cells [HEK001 (ATCC® CRL-2404™) lot #61331463] continuous cell lines and Human Skin Fibroblast (HDF) [CCD1093Sk (ATCC® CRL2115™) lot #3296816] cell lines [ATCC, Manassas, Va.].
(§2) The growth medium used for HEK cells was prepared according to ATCC guidelines. Growth media consisting of keratinocyte serum free medium (GIBCO-BRL 17005042, lot #1638561) with 5 ng/mL human recombinant epidermal growth factor (EGF) (ATCC, lot # 1584416) and 2 mM L-glutamine (ATCC, lot #62195752) (without bovine pituitary extract and serum) and supplemented with penicillin (10000 units) and streptomycin (10 mg/mL) solution (Gibco, lot #1469707). The growth medium used for HDF cells consisting of eagle's Minimum Essential Medium (EMEM) (ATCC-302003, lot #62028896) with 10% FBS and supplemented with penicillin (10000 units) and streptomycin (10 mg/mL) solution. Cells were grown in cell culture flasks (75 cm^2) [Fisher Scientific, catalog number 10-126-37] to approximately 80% confluence in 5% CO2 environment incubator (NuAire, MN) maintained at 37° C. Confluent cells were passed into subsequent cultures by trypsinization following neutralization and centrifugation. […]
(§3) MTS assay. […] After incubation the absorbance at 490 nm was recorded using microplate Reader (SpectraMax® Me5, Molecular Devices, LLC. Sunnyvale, Calif.). […]

[2] = test system: human epidermal keratinocytes (HEK) cells; assay: as above; assay type: cell-based; settings: lutein solution in DMSO at 50, 100 and 200 ppm as shield plate on top, blue LED 476 nm, 9 hours, p<0.05, FIG. 2
Procedure: as §1, §2, §3

[3] = test system: human dermal fibroblasts (HDF) cells; assay: Intracellular reactive oxygen species (ROS) assay (DCFH-DA) under blue light; assay type: cell-based; settings: lutein at 50, 100 and 200 ppm, blue LED 476 nm, 9 hours, FIG. 6
Procedure: (§4) Reactive Oxygen Species (ROS) assay. ROS activity was measured using Oxiselect™ intracellular ROS assay kit (Cell BioLabs, San Diego, Calif., catalogue number STA 342, lot #59342025). The cells were seeded into 96-well microplates at a density of 100,000 cells/mL (200 μL). Both the cell lines were treated with cell permeable fluorogenic probe 2′, 7′-dichlorodihydrofluorescin diacetate (DCFH-DA). Cells were washed with D-PBS for couple of times and treated with lutein at different concentrations and exposed to blue LED lights (476 nm) for 9 hours (Cells that were not treated with lutein will serve as blue light control). Cells treated with pure DMSO serves as a control for DMSO effect in presence and absence of blue light. […] After 5 minutes incubation, 150 μL of this medium was transferred to a black wall 96-well plate and fluorescence was measured. […] Intracellular reactive oxygen species (ROS) activity and the oxidative stress was measured using Oxiselect™ intracellular ROS assay kit which can measure hydroxyl, peroxyl and other free radical in the cells. […] DCFH will be rapidly oxidized to fluorescent […] (DCF-green fluorescence) in presence of reactive oxygen species. The fluorescence intensity is proportional to the ROS levels within the cell cytosol. […]

[4] = test system: human epidermal keratinocytes (HEK) cells; assay: as above; assay type: cell-based; settings: lutein at 50, 100 and 200 ppm, blue LED 476 nm, 9 hours, FIG. 5
Procedure: as §4

[5] = Solubility of lutein in cell culture media and DMSO; assay type: physicochemical
Procedure: FloraGLO™ Lutein (production number M080033, lot number 1405102477, manufactured date Jun. 04, 2014) was solubilized in sterile dimethyl sulfoxide (DMSO) [ATCC, lot #61908420] with intermittent shaking for at least 6 hours to get a stock of 2 mg/mL solution. From the stock; 2.5, 5 and 10 μl of the lutein solution was added to wells containing 100 μl media to get a final lutein concentration of 50, 100 and 200 ppm in corresponding wells. Hydrogen peroxide (H2O2) [Sigma, lot #WKBS8306V] solution at 1 mM was served as a positive control in all the studies. Pure DMSO at 2.5, 5 and 10 μl was added to few wells to have the DMSO control.
FloraGLO™ Lutein was solubilized in DMSO and applied to cell cultures. […] In our earlier attempts for cell viability assays with various detection mechanisms, this high concentrations of DMSO might be interacting with cell culture membranes and causing a reduction in cell proliferation and decrease in cell viability compared to controls.

Compound: CC1=C[C@H](O)CC(C)(C)[C@H]1/C=C/C(C)=C/C=C/C(C)=C/C=C/C=C(C)/C=C/C=C(C)/C=C/C1=C(C)C[C@@H](O)CC1(C)C [lutein]
- cell proliferation (% cell viability) compared to blue light control [1]: significantly improved; also recorded: shielded the blue light effectively
- cell proliferation (% cell viability) compared to blue light control [2]: significantly improved; also recorded: shielded the blue light effectively
- fluorescence signal (DCF, generation of ROS) on blue light exposure [3]: low and prevent the generation of reactive oxygen species
- fluorescence signal (DCF, generation of ROS) on blue light exposure [4]: low and prevent the generation of reactive oxygen species
- solubility in DMSO ([5]; DMSO): limited solubility
- solubility in cell culture compatible media ([5]; cell culture compatible media): does not dissolve
